Key:
Experiment in all cases: Test 7 field trial, preemergence
[1] = tested on: morningglory (IPOSS); format: in vivo, Ipomoea L. spp.
Experimental: (§1) Plots were 7.6 m long by 3.0 m wide with rows spaced 76 cm apart. Seeds were spaced 15 cm apart within the rows. The field was managed using conventional tillage practices. […] Wild radish was evaluated 14 and 28 days after application. […] Results are the means of the three replicates.

[2] = tested on: annual grasses (GGGAN); format: in vivo, Gramineae
Experimental: as §1

[3] = tested on: redroot pigweed (AMARE); format: in vivo, Amaranthus retroflexus
Experimental: as §1

[4] = tested on: corn (ZEAMD); format: in vivo, Zea mays ssp. indentata; conditions: hybrid Pioneer 36B10, corn (Zea mays ssp. indentata), in vivo, 62 days after application
Experimental: as §1

[5] = tested on: Pennsylvania smartweed (POLPY); format: in vivo, Polygonum pensylvanicum
Experimental: as §1

[6] = tested on: jimsonweed (DATST); format: in vivo, Datura stramonium
Experimental: as §1

[7] = tested on: wild radish (RAPRA); format: in vivo, Raphanus raphanistrum
Experimental: as §1

- ZEAMD Obs [4]: 0%
Compound: CCOC(=O)c1nc(C2CC2)nc(N)c1Br [Compound 6, ethyl 6-amino-5-bromo-2-cyclopropyl-4-pyrimidinecarboxylate]
- IPOSS Obs ([1]; 14 DAA, 125 g a.i./ha): 93%
- IPOSS Obs ([1]; 14 DAA, 250 g a.i./ha): 100%
- IPOSS Obs ([1]; 14 DAA, 500 g a.i./ha): 100%
- IPOSS Obs ([1]; 28 DAA, 125 g a.i./ha): 93%
- IPOSS Obs ([1]; 28 DAA, 250 g a.i./ha): 100%
- IPOSS Obs ([1]; 28 DAA, 500 g a.i./ha): 100%
- IPOSS Obs ([1]; 62 DAA, 125 g a.i./ha): 100%
- IPOSS Obs ([1]; 62 DAA, 250 g a.i./ha): 100%
- IPOSS Obs ([1]; 62 DAA, 500 g a.i./ha): 100%
- GGGAN Obs ([2]; 14 DAA, 125 g a.i./ha): 7%
- GGGAN Obs ([2]; 14 DAA, 250 g a.i./ha): 53%
- GGGAN Obs ([2]; 14 DAA, 500 g a.i./ha): 63%
- GGGAN Obs ([2]; 28 DAA, 125 g a.i./ha): 2%
- GGGAN Obs ([2]; 28 DAA, 250 g a.i./ha): 35%
- GGGAN Obs ([2]; 28 DAA, 500 g a.i./ha): 52%
- GGGAN Obs ([2]; 62 DAA, 125 g a.i./ha): 90%
- GGGAN Obs ([2]; 62 DAA, 250 g a.i./ha): 0%
- GGGAN Obs ([2]; 62 DAA, 500 g a.i./ha): 0%
- AMARE Obs ([3]; 14 DAA, 125 g a.i./ha): 87%
- AMARE Obs ([3]; 14 DAA, 250 g a.i./ha): 98%
- AMARE Obs ([3]; 14 DAA, 500 g a.i./ha): 98%
- AMARE Obs ([3]; 28 DAA, 125 g a.i./ha): 82%
- AMARE Obs ([3]; 28 DAA, 250 g a.i./ha): 97%
- AMARE Obs ([3]; 28 DAA, 500 g a.i./ha): 98%
- AMARE Obs ([3]; 62 DAA, 125 g a.i./ha): 80%
- AMARE Obs ([3]; 62 DAA, 250 g a.i./ha): 70%
- AMARE Obs ([3]; 62 DAA, 500 g a.i./ha): 100%
- POLPY Obs ([5]; 14 DAA, 125 g a.i./ha): 40%
- POLPY Obs ([5]; 14 DAA, 250 g a.i./ha): 83%
- POLPY Obs ([5]; 14 DAA, 500 g a.i./ha): 93%
- POLPY Obs ([5]; 28 DAA, 125 g a.i./ha): 45%
- POLPY Obs ([5]; 28 DAA, 250 g a.i./ha): 80%
- POLPY Obs ([5]; 28 DAA, 500 g a.i./ha): 88%
- POLPY Obs ([5]; 62 DAA, 125 g a.i./ha): 75%
- POLPY Obs ([5]; 62 DAA, 250 g a.i./ha): 55%
- POLPY Obs ([5]; 62 DAA, 500 g a.i./ha): 100%
- DATST Obs ([6]; 14 DAA, 125 g a.i./ha): 87%
- DATST Obs ([6]; 14 DAA, 250 g a.i./ha): 100%
- DATST Obs ([6]; 14 DAA, 500 g a.i./ha): 95%
- DATST Obs ([6]; 28 DAA, 125 g a.i./ha): 90%
- DATST Obs ([6]; 28 DAA, 250 g a.i./ha): 100%
- DATST Obs ([6]; 28 DAA, 500 g a.i./ha): 100%
- DATST Obs ([6]; 62 DAA, 125 g a.i./ha): 75%
- DATST Obs ([6]; 62 DAA, 250 g a.i./ha): 100%
- DATST Obs ([6]; 62 DAA, 500 g a.i./ha): 90%
- RAPRA Obs ([7]; 14 DAA, 125 g a.i./ha): 25%
- RAPRA Obs ([7]; 14 DAA, 250 g a.i./ha): 40%
- RAPRA Obs ([7]; 14 DAA, 500 g a.i./ha): 43%
- RAPRA Obs ([7]; 28 DAA, 125 g a.i./ha): 35%
- RAPRA Obs ([7]; 28 DAA, 250 g a.i./ha): 30%
- RAPRA Obs ([7]; 28 DAA, 500 g a.i./ha): 30%

Reference: patent US20100285959A1, “HERBICIDAL MIXTURES” (priority 2006, published 2010)
